Test results as given in ChEMBL document CHEMBL1201862, “PubChem BioAssay data set” (2004).
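Method: 48-hour compound exposure of cells in 96-well plates, five concentrations, linear interpolation of endpoints. Abbreviation: GI50, concentration required for 50% inhibition of growth.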 Calls of active or inactive are those of the source. No stated cut-off is given here; in the data, active = GI50 up to about 1.1 µM and inactive = higher.

Legend:
Test in all cases: NCI tumour cell line growth inhibition, 48 h
PC-3 = system: PC-3
NCI/ADR-RES = system: NCI/ADR-RES
T47D = system: T47D
KM12 = system: KM12
MDA-N = system: MDA-N
SN12C = system: SN12C
K562 = system: K562
SNB-75 = system: SNB-75
M14 = system: M14
Hs-578T = system: Hs-578T
U-251 = system: U-251
HT-29 = system: HT-29
RXF 393 = system: RXF 393
CCRF-CEM = system: CCRF-CEM
A549 = system: A549
KM-20L2 = system: KM-20L2
DMS-273 = system: DMS-273

Row | SMILES | GI50 (PC-3) | GI50 (NCI/ADR-RES) | GI50 (T47D) | GI50 (KM12) | GI50 (MDA-N) | GI50 (SN12C) | GI50 (K562) | GI50 (SNB-75) | GI50 (M14) | GI50 (Hs-578T) | GI50 (U-251) | GI50 (HT-29) | GI50 (RXF 393) | GI50 (CCRF-CEM) | GI50 (A549) | GI50 (KM-20L2) | GI50 (DMS-273)
1 | N#Cc1c2c(c(Nc3ccc(F)cc3)n3c1nc1ccccc13)CCCC2 | 5.36 µM (inactive) | > 100 µM (inactive) | 6.64 µM (inactive) | 5.6 µM (inactive) | > 28.6 µM (inactive) | > 100 µM (inactive) | 0.562 µM (active) | 45.7 µM (inactive) | 1.7 µM (inactive) | 36.9 µM (inactive) | 43.8 µM (inactive) | > 100 µM (inactive) | 24 µM (inactive) | > 22.5 µM (inactive) | 97.9 µM (inactive) |  | 
2 | CN1C2CCC1CC(CCNC(c1ccccc1)c1ccccc1)C2 (configuration not stated) | 37.6 µM (inactive) | > 100 µM (inactive) | 25.5 µM (inactive) | 44 µM (inactive) | 12.6 µM (inactive) | 83 µM (inactive) | 6.5 µM (inactive) | 47.2 µM (inactive) | 11.6 µM (inactive) | 29.9 µM (inactive) | 30.6 µM (inactive) | 15.2 µM (inactive) | 14.4 µM (inactive) | 36 µM (inactive) | 71 µM (inactive) |  | 
3 | C#CC1(O)C(COP(=O)(O)OC(COCCCCCCCCCCCCCCCCCC)COP(=O)(O)OCC2OC(n3cc(C)c(=O)[nH]c3=O)CC2N=[N+]=[N-])OC(n2ccc(N)nc2=O)C1O (configuration not stated) | 2.86 µM (inactive) | 1.22 µM (inactive) | 3.73 µM (inactive) | 0.891 µM (active) | 1.14 µM (inactive) | 0.807 µM (active) | 0.216 µM (active) | 2.52 µM (inactive) | 8.02 µM (inactive) | 5.4 µM (inactive) | 0.264 µM (active) | 1.16 µM (inactive) | 1.37 µM (inactive) | 0.562 µM (active) | 0.29 µM (active) |  | 
4 | CC(C)(C)OC(=O)NCCC(=O)NC1(c2cc3ccccc3s2)CCCCC1 | 18.5 µM (inactive) | 18.1 µM (inactive) | 8.05 µM (inactive) | 18.7 µM (inactive) | 17.6 µM (inactive) | 18.3 µM (inactive) | 12.3 µM (inactive) | 17.4 µM (inactive) | 18.4 µM (inactive) | 28.1 µM (inactive) | 19.3 µM (inactive) | 13.8 µM (inactive) | 12.8 µM (inactive) | 12.5 µM (inactive) | 15.9 µM (inactive) |  | 
5 | COc1cc2cc(C(=O)N3C[C@@H](CCl)c4c3cc(N)c3ccccc43)[nH]c2c(OC)c1OC | 0.00102 µM (active) | 0.00332 µM (active) | 0.00104 µM (active) | 0.00216 µM (active) | 0.000296 µM (active) | 0.00914 µM (active) | 0.00327 µM (active) | < 0.01 µM (active) | 0.00104 µM (active) | 0.00738 µM (active) | 0.00163 µM (active) | 0.0735 µM (active) | 0.00157 µM (active) | 0.000644 µM (active) | 0.00546 µM (active) |  | 
6 | O=C1/C(=C/c2ccc(Cl)cc2)Sc2scc(-c3cccc([N+](=O)[O-])c3)[n+]21 | 7.5 µM (inactive) | 2.37 µM (inactive) | 3.5 µM (inactive) | 2.89 µM (inactive) | 3.36 µM (inactive) | 2.77 µM (inactive) | 0.459 µM (active) | 0.971 µM (active) | 3.57 µM (inactive) | 5.48 µM (inactive) | 4.55 µM (inactive) | 5.65 µM (inactive) | 2.42 µM (inactive) | 0.259 µM (active) | 13.6 µM (inactive) |  | 
7 | COc1ccc2nc3cc([N+](=O)[O-])ccc3c(Nc3ccc(S(=O)(=O)Nc4ncccn4)cc3)c2c1 | 30.6 µM (inactive) | > 100 µM (inactive) | > 100 µM (inactive) | 31.7 µM (inactive) | > 89.1 µM (inactive) | > 100 µM (inactive) | 35.4 µM (inactive) | 62.2 µM (inactive) | 48.8 µM (inactive) | 12.4 µM (inactive) | > 55 µM (inactive) | 26.5 µM (inactive) | > 100 µM (inactive) | > 76.9 µM (inactive) | > 100 µM (inactive) |  | 
8 | O=c1c2cc([N+](=O)[O-])ccc2nc2n1CCCCC2 | 89.3 µM (inactive) | > 100 µM (inactive) | > 100 µM (inactive) | > 100 µM (inactive) | > 100 µM (inactive) | > 100 µM (inactive) | > 100 µM (inactive) | 57.1 µM (inactive) | > 100 µM (inactive) | 43.3 µM (inactive) | > 100 µM (inactive) | > 100 µM (inactive) | > 100 µM (inactive) | 21.5 µM (inactive) | > 100 µM (inactive) |  | 
9 | COC(=O)C1=CC2OC1(C)CCC2=O (configuration not stated) |  |  |  | > 100 µM (inactive) |  | > 100 µM (inactive) | 62.4 µM (inactive) | > 100 µM (inactive) | 44.6 µM (inactive) |  | > 100 µM (inactive) | > 100 µM (inactive) | > 100 µM (inactive) | 35.1 µM (inactive) | > 100 µM (inactive) | > 100 µM (inactive) | > 100 µM (inactive)
10 | CN1CCC2(CC1)SC[C@H]1C(=O)N(c3ccc(Cl)cc3)C(=O)N12 | > 100 µM (inactive) | > 100 µM (inactive) | > 100 µM (inactive) | > 100 µM (inactive) | > 100 µM (inactive) | > 100 µM (inactive) | 45.2 µM (inactive) | > 100 µM (inactive) | > 100 µM (inactive) | > 100 µM (inactive) | > 100 µM (inactive) | > 100 µM (inactive) | > 100 µM (inactive) | > 100 µM (inactive) | > 100 µM (inactive) |  | 
11 | Cc1ccc(NC(=O)c2cc3ccccc3c(/N=N/c3cc(S(=O)(=O)O)ccc3O)c2O)c(C)c1 | 14.5 µM (inactive) | 25.6 µM (inactive) | 24.7 µM (inactive) | 16.1 µM (inactive) | 32.2 µM (inactive) | 41.7 µM (inactive) | 23 µM (inactive) | 23.3 µM (inactive) | 7.43 µM (inactive) | 31.6 µM (inactive) | 4.33 µM (inactive) | 12.4 µM (inactive) | 17.5 µM (inactive) | 3.3 µM (inactive) | 22.3 µM (inactive) |  | 
12 | S=C1C=C(c2ccccc2)Sc2ccccc2N1 | > 100 µM (inactive) | > 100 µM (inactive) | > 100 µM (inactive) | > 100 µM (inactive) | > 100 µM (inactive) | > 100 µM (inactive) | > 100 µM (inactive) | 61.7 µM (inactive) | 57.9 µM (inactive) | 19.5 µM (inactive) | > 100 µM (inactive) | > 100 µM (inactive) | 8.95 µM (inactive) | 67.5 µM (inactive) | > 100 µM (inactive) |  | 
13 | Cc1ccc(/C=C/C(=O)c2cc(CN(C)C)c(O)c(CN(C)C)c2)cc1 | 13.5 µM (inactive) | 25.4 µM (inactive) | 18 µM (inactive) | 12.1 µM (inactive) | 15.2 µM (inactive) | 14.2 µM (inactive) | 13.8 µM (inactive) | 24.4 µM (inactive) | 15.8 µM (inactive) | 29.8 µM (inactive) | 21.9 µM (inactive) | 13.7 µM (inactive) | 18.7 µM (inactive) | 14.4 µM (inactive) | 18.8 µM (inactive) |  | 
